Measurements from ChEMBL document CHEMBL5058564, “EUbOPEN Chemogenomics Library 2 (Incucyte)” (2022).

Columns and labels:
Format in all cases: toxicity, cell-based
HEK-293T = experiment: Incucyte cell viability with HEK293T; details: human, 10 µM, compound concentration 10 uM
U2OS = experiment: Incucyte cell viability with U2OS; details: human, 10 µM, compound concentration 10 uM
Fibroblast = experiment: Incucyte cell viability with human fibroblast; details: 10 µM, compound concentration 10 uM
[1] = 0 h, replicate number 1, timepoint 0 hours
[2] = 6 h, replicate number 1, timepoint 6 hours
[3] = 12 h, replicate number 1, timepoint 12 hours
[4] = 18 h, replicate number 1, timepoint 18 hours
[5] = 6 h, replicate number 2, timepoint 6 hours
[6] = 12 h, replicate number 2, timepoint 12 hours
[7] = 18 h, replicate number 2, timepoint 18 hours
[8] = 24 h, replicate number 1, timepoint 24 hours
[9] = 24 h, replicate number 2, timepoint 24 hours
[10] = 0 h, replicate number 2, timepoint 0 hours
Note: unitless GR value; below 1 slowed growth and below 0 cell loss.

SMILES: CNC[C@H](O)c1ccc(O)c(O)c1 [EPINEPHRINE]
- Growth Rate (HEK-293T; [1]): 0.03
- Growth Rate (HEK-293T; [2]): 0.83
- Growth Rate (HEK-293T; [3]): 0.73
- Growth Rate (HEK-293T; [4]): 0.84
- Growth Rate (U2OS; [1]): 0.36
- Growth Rate (U2OS; [2]): 0.63
- Growth Rate (U2OS; [5]): 0.96
- Growth Rate (U2OS; [3]): 0.43
- Growth Rate (U2OS; [6]): 0.71
- Growth Rate (U2OS; [4]): 0.85
- Growth Rate (U2OS; [7]): 0.9
- Growth Rate (U2OS; [8]): 0.86
- Growth Rate (U2OS; [9]): 0.94
- Growth Rate (Fibroblast; [1]): 0.11
- Growth Rate (Fibroblast; [10]): -0.14

SMILES: CN1CCN(c2cc(-c3ccccc3)nc(N)n2)CC1
- Growth Rate (HEK-293T; [5]): 0.96
- Growth Rate (U2OS; [1]): 0.75
- Growth Rate (U2OS; [5]): 0.59
- Growth Rate (U2OS; [6]): 0.96
- Growth Rate (U2OS; [4]): 0.97
- Growth Rate (Fibroblast; [1]): 0.2
- Growth Rate (Fibroblast; [10]): 0.38
- Growth Rate (Fibroblast; [3]): 0.86
- Growth Rate (Fibroblast; [4]): 0.76
- Growth Rate (Fibroblast; [8]): 0.83

SMILES: N#Cc1c(N)nc(SCc2csc(-c3ccc(Cl)cc3)n2)c(C#N)c1-c1ccc(OCCO)cc1 [CAPADENOSON]
- Growth Rate (HEK-293T; [1]): 0.41
- Growth Rate (HEK-293T; [10]): 0.32
- Growth Rate (HEK-293T; [2]): 0.99
- Growth Rate (HEK-293T; [5]): 0.69
- Growth Rate (HEK-293T; [3]): 0.54
- Growth Rate (HEK-293T; [6]): 0.46
- Growth Rate (HEK-293T; [4]): 0.36
- Growth Rate (HEK-293T; [7]): 0.44
- Growth Rate (HEK-293T; [8]): 0.31
- Growth Rate (HEK-293T; [9]): 0.41
- Growth Rate (U2OS; [1]): 0.75
- Growth Rate (U2OS; [10]): 0.97
- Growth Rate (U2OS; [2]): 0.52
- Growth Rate (U2OS; [3]): 0.6
- Growth Rate (U2OS; [6]): 0.81
- Growth Rate (U2OS; [4]): 0.66
- Growth Rate (U2OS; [7]): 0.87
- Growth Rate (U2OS; [8]): 0.79
- Growth Rate (U2OS; [9]): 0.83
- Growth Rate (Fibroblast; [1]): 0.09
- Growth Rate (Fibroblast; [10]): -0.41
- Growth Rate (Fibroblast; [2]): -0.5
- Growth Rate (Fibroblast; [5]): 0.85
- Growth Rate (Fibroblast; [3]): -0.47
- Growth Rate (Fibroblast; [6]): 0.37
- Growth Rate (Fibroblast; [4]): -0.41
- Growth Rate (Fibroblast; [7]): 0.66
- Growth Rate (Fibroblast; [8]): -0.34
- Growth Rate (Fibroblast; [9]): 0.54

SMILES: Cc1ccccc1C#Cc1ccc(CCC(=O)O)cc1
- Growth Rate (HEK-293T; [10]): 0.37
- Growth Rate (HEK-293T; [2]): 0.63
- Growth Rate (HEK-293T; [5]): 0.81
- Growth Rate (HEK-293T; [3]): 0.72
- Growth Rate (HEK-293T; [6]): 0.75
- Growth Rate (HEK-293T; [4]): 0.73
- Growth Rate (HEK-293T; [7]): 0.67
- Growth Rate (HEK-293T; [8]): 0.74
- Growth Rate (HEK-293T; [9]): 0.62
- Growth Rate (U2OS; [1]): 0.25
- Growth Rate (U2OS; [2]): 0.52
- Growth Rate (U2OS; [5]): 0.9
- Growth Rate (U2OS; [3]): 0.67
- Growth Rate (U2OS; [4]): 0.7
- Growth Rate (U2OS; [7]): 0.92
- Growth Rate (U2OS; [8]): 0.77
- Growth Rate (Fibroblast; [1]): 0.45
- Growth Rate (Fibroblast; [10]): 0.93
- Growth Rate (Fibroblast; [5]): 0.07
- Growth Rate (Fibroblast; [6]): 0.32
- Growth Rate (Fibroblast; [7]): 0.35
- Growth Rate (Fibroblast; [9]): 0.31

SMILES: CS(=O)(=O)N1CCCC(NC(=O)[C@H](CCC2CCCCC2)NC(=O)c2ccc(CNc3ncnc4c3nnn4-c3ccccc3)cc2)C1 (some centres undefined) [SR-301]
- Growth Rate (HEK-293T; [10]): 0.12
- Growth Rate (HEK-293T; [2]): -0.5
- Growth Rate (HEK-293T; [3]): -0.33
- Growth Rate (HEK-293T; [4]): -0.23
- Growth Rate (HEK-293T; [8]): -0.11
- Growth Rate (U2OS; [1]): 0.63
- Growth Rate (U2OS; [2]): 0.78
- Growth Rate (U2OS; [3]): 0.94
- Growth Rate (U2OS; [4]): 0.6
- Growth Rate (U2OS; [7]): 0.89
- Growth Rate (U2OS; [8]): 0.6
- Growth Rate (Fibroblast; [10]): -0.06
- Growth Rate (Fibroblast; [2]): -0.33
- Growth Rate (Fibroblast; [3]): -0.47
- Growth Rate (Fibroblast; [4]): -0.48
- Growth Rate (Fibroblast; [8]): -0.39

SMILES: Br.Oc1cc2c(cc1O)C(c1ccccc1)CNCC2 (centres undefined)
- Growth Rate (HEK-293T; [1]): 0.99
- Growth Rate (HEK-293T; [10]): 0.61
- Growth Rate (HEK-293T; [2]): 0.78
- Growth Rate (HEK-293T; [5]): -0.1
- Growth Rate (HEK-293T; [3]): 0.62
- Growth Rate (HEK-293T; [6]): 0.43
- Growth Rate (HEK-293T; [4]): 0.92
- Growth Rate (HEK-293T; [7]): 0.37
- Growth Rate (HEK-293T; [9]): 0.67
- Growth Rate (U2OS; [2]): 0.49
- Growth Rate (U2OS; [5]): 1
- Growth Rate (U2OS; [3]): 0.47
- Growth Rate (U2OS; [4]): 0.55
- Growth Rate (U2OS; [7]): 0.99
- Growth Rate (U2OS; [8]): 0.98
- Growth Rate (Fibroblast; [1]): 0.09
- Growth Rate (Fibroblast; [10]): -0.21
